Test results taken from publication PMC11729428, “New Potent Inhibitor of Transforming Growth Factor-Beta (TGFβ) Signaling that is Efficacious against Microsatellite Stable Colorectal Cancer Metastasis in Combination with Immune Checkpoint Therapy in Mice” (ACS Pharmacology & Translational Science, 2024).
Values after ≈ are worked out from the molar mass of the structure shown. Where two headings read alike, the source gives them in different places.

Assays:
[1] = Exploratory toxicology study in Balb/C mice; format: in vivo
Experimental: In comparison to that in rats, toxicity of TGFβ receptor-1 inhibitors in mice was less severe (Figure 4). […] Histopathology examination in bones found relatively mild phenotypes (Figure 4A).
performed using GraphPad Prism statistical software version 5.02 for Windows, GraphPad Software, San Diego
The study design in mice was similar as in rats, except 5 mice of each sex were used (n=10 in total), and that
there was not a recovery group. All analyses were performed at day 29 after termination of treatment.

[2] = Exploratory toxicology study in SD rats; conditions: for Degeneration of heart valves (histopathology grade): HYL001: after 4 weeks of repeated dosing, vactosertib: after 7–8 days of treatment; for Retained hypertrophied cartilage physis in sternum and femur (grade): vactosertib: all animals, HYL001: a few females
Experimental: (§1) Sprague-Dawley rats were procured from Hylasco Bio-Technology Pvt. Ltd., Hyderabad. After completion of
(§2) the acclimatization period twelve healthy rats were randomly allocated to the control and treatment g roups.
(§3) mg/kg BID) treated animals, having three rats/sex/group. Rats from control group received vehicle, consisting
(§4) quantity sufficient to 1% w/v Carboxy Methyl Cellulose Sodium Salt. Rats from treatment groups were
(§5) administered with suspensions of the indicated drugs in vehicle, orally twice a day fo r an intended period of 28
(§6) consecutive days. The dosing volume was kept constant at 10 mL/kg for each rat.
(§7) clinical sign that worsened during the treatment, were necropsied in the shortest time for ethical reasons. The
(§8) rest of the rats were necropsied at the end of the treatment.
(§9) asphyxiation on day 29, except for one group of HYL001 treated rats with 71 mg/kg BID, that were allowed to
(§10) recover from treatment for further 28 days.
(§11) The rats were subjected to detailed gross pathological examination which included careful examination of the
(§12) external surface of the body, all orifices and the cranial, thoracic and abdominal cavities and their contents. After
(§13) gross pathological examination the vital organs were trimmed of any adherent tissue and were weighed wet.
(§14) Paired organs were weighed together. Organ weights relative to terminal body weights were calculated for each
(§15) Parameters evaluated during the study included in-life observations such as clinical signs observation, body
(§16) weights, percent body weight gains, and feed consumption. Parameters like hematology, clinical chemistry,
(§17) gross pathology, and organ weights were evaluated on the day of termination. Several organs/tissues were further
(§18) processed and evaluated for histopathology, where special attention was given to bones, gastrointestinal system
(§19) (stomach, duodenum, jejunum, ileum, caecum, colon and rectum), heart, and vascular lesions in the aorta and
(§20) coronary arteries. For histopathology, 3-5 μM thick tissue sections were cut and stained with hematoxylin-eosin
(§21) stain. The heart was trimmed by longitudinally bisecting along a plane perpendicular to the plane of the
(§22) pulmonary artery to expose the right atrioventricular, left atrioventricular, and aortic valves. Both halves of the
(§23) heart were embedded as hemisection in paraffin with the cut surface down. Blocks were sectioned to obtain at
least three heart valves.

[3] = oral, cited from earlier work
[4] = rat, in vivo
Experimental: as §1, §2, §3, §4, §5, §6, §7, §8, §9, §10, §11, §12, §13, §14, §15, §16, §17, §18, §19, §20, §21, §22, §23
least three heart valves.

Solubility = format: physicochemical
Experimental: The solubilities in this solution are 0.7 mg/mL (1b) and 0.23 mg/mL (1a). In most in vivo experiments, a homogeneous suspension in the following vehicle was used: sodium carboxymethylcellulose (1%), sodium dodecyl sulfate (0.4%), polyvinylpyrrolidone (0.085%), and antifoam-A (0.05%). The solubilities in this vehicle are approximately 0.15 mg/mL (1b) and 0.09 mg/mL (1a). […] Therefore, as a proof-of-concept, we leveraged the hydroxyl handle to design HYL002. We added a carbonyl-4-piperidinopiperidine group, in analogy to the ester that solubilizes SN-38 into irinotecan, and that can be cleaved via hydrolysis inside cells[19] (Figure S1). HYL001 reacted with commercially available 4-piperidinopiperidine-1-carbonyl chloride in chloroform using triethylamine and catalytic amounts of DMAP (Scheme S1). We then transformed the resulting compound HYL002 into the corresponding HCl salt to aid the in vivo drug formulation. The free base was dissolved in dioxane under N2, where it was treated dropwise with 10 equiv of 4 M HCl in dioxane at room temperature with vigorous stirring. The reaction mixture was then taken to dryness in vacuo, giving the HCl salt of HYL002.

[5] = test system: mouse tumor organoids (MTOs), CRC liver metastases; assay: Prevention of liver metastasis formation after MTO injection (monotherapy); format: in vivo, mice; conditions: 0.1× dose: 71 mg/kg BID HYL001, 80 mg/kg BID galunisertib
Experimental: We first assayed the capacity of HYL001 to inhibit liver metastasis formation as a monotherapy. In this model, we inoculated MTOs derived from liver metastases into the portal vein (by intrasplenic or direct intravenous injection) to model their becoming trapped in hepatic sinusoids and, depending on their metastatic capacity, the initiation of liver nodules. […] Remarkably, 0.1 × mol equiv (71 mg/kg BID) of HYL001 was sufficient to prevent metastasis formation in 10 out of 11 animals.
Figure 5 HYL001 prevents metastasis formation in vivo. (A) Experimental scheme, including injection of MTOs. Experimental end point was at day 28, 2 weeks after treatment stop. […] (B) Liver metastases (Mets) were counted at end points; each point represents one mouse. Nonparametric Mann–Whitney U test, two-tailed. ns: P > 0.05; *P < 0.05; **P < 0.01; ***P < 0.001; (C) representative images of H & E whole slides containing liver sections from mice treated with TGFβ inhibitors; dashed line circles delimit metastases. […] 0.3× and 0.1×: dilutions thereof. Bars, 10 mm.
For all tumor cell injections, C57BL/6J (or athymic BALB/C nu/nu) mice were purchased from Janvier at 6 weeks of age and injected at 7–8 weeks. Sex was matched with the origin of the tumor organoids, i.e., males for this study. […] Visible liver metastases were counted, and data were analyzed using GraphPad Prism software (v.7.03). […]

p38α = biological target: T1, p38α (Homo sapiens, UniProt Q16539); assay: Radiometric in vitro kinase activity assay (Kinase Profiler); format: biochemical; conditions: full-length recombinant protein; read-out: kinase inhibition IC50, p38α
T1 construct: p38alpha was used as a full -length recombinant protein; purchased Eurofins Pharma Discovery Services / Eurofins Cerep (Kinase Profiler service)
Experimental: 5. Methods for In vitro characterizations of HYL001
Kinase affinity and selectivity […]
The activity, measured as IC50, of inhibitors was determined by radiometric γ-33P-ATP-mediated in vitro phosphorylation assays, using the Kinase Profiler service from Eurofins Pharma Discovery Services (Wolverhampton, UK) and Eurofins Cerep (Celle L’Evescault, France). Compounds, prepared in 100% DMSO, were tested using a 9-point curve with half -log serial dilutions (1–10,000 nM). […]

[6] = aqueous dosing vehicle (NaCMC/SDS/PVP/antifoam-A), aqueous with cosolvent or surfactant or cyclodextrin, vehicle: sodium carboxymethylcellulose (1%), sodium dodecyl sulfate (0.4%), polyvinylpyrrolidone (0.085%), antifoam-A (0.05%), read-out: Solubility

T1 sequence (Q16539 whole entry): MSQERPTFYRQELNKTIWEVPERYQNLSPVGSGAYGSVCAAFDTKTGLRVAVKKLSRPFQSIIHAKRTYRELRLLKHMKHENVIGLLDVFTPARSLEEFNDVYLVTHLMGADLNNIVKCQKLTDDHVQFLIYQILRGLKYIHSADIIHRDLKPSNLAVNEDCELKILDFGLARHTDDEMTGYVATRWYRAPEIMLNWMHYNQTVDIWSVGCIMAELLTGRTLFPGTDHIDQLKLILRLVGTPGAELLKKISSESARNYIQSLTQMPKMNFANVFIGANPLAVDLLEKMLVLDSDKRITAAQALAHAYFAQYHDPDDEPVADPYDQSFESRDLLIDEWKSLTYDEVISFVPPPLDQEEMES

Cc1cccc(-c2[nH]c(CNc3ccccc3F)nc2-c2ccc3ncnn3c2)n1 [vactosertib, N -((4-([1,2,4]Triazolo[1,5-a]Pyridin-6-Yl)-5-(6-Methylpyridin-2-Yl)-1 H -Imidazole-2-Yl)Methyl)-2-Fluoroaniline]
Mortality or signs of morbidity ([1]; equimolar dose, mice): No mortality or signs of morbidity
Female mice with slight inflammatory infiltrates in liver ([1]; female, Balb/C, mouse, in vivo, 29 day): 4/5
Neutrophil count ([1]; mouse, in vivo): slight increase
Degeneration of heart valves (histopathology grade) [2]: moderate
Animals with chronic inflammation of the myocardium ([2]; at early end points (day 7–8)): all 6
Mortality ([2]; group 4, equimolar dose (82 mg/kg BID)): all female rats were found dead on day 7 and all male rats had to be sacrificed on day 8
Retained hypertrophied cartilage physis in sternum and femur (grade) [2]: mild–moderate
AUCinf ([3]; mice (FVB/N), 10 mg/kg ref 21): 752 ng·h/mL
AUClast ([3]; mice (FVB/N), 10 mg/kg ref 21): 724 ng·h/mL
Cl/F ([3]; mice (FVB/N), 10 mg/kg ref 21): 222 mL/min/kg
Cmax ([3]; mice (FVB/N), 10 mg/kg ref 21): 625 ng/mL
T1/2 ([3]; mice (FVB/N), 10 mg/kg ref 21): 196 min
Tmax ([3]; mice (FVB/N), 10 mg/kg ref 21): 30 min
Vss/F ([3]; mice (FVB/N), 10 mg/kg ref 21): 18 L/kg
Animals showing a curved sternum at death or end point [4]: all
Microscopic findings along the gastrointestinal tract [4]: minimal hyperplasia of the nonglandular stomach and chronic inflammation observed in one female rat

Cc1cccc(-c2nn3c(c2-c2ccnc4ccc(C(N)=O)cc24)CCC3)n1 [galunisertib]
solubility (Solubility; [6]): ~150 µg/mL (≈ 406 µM)
solubility (Solubility; solution of PBS/2-hydroxypropy-β-cyclodextrin (1 g/mL)): 700 µg/mL (≈ 1890 µM)
Solubility in water (Solubility): poorly soluble
AUClast ([3]; mice (♀ CD-1), 75 mg/kg ref 20): 3110 ng·h/mL
Cmax ([3]; mice (♀ CD-1), 75 mg/kg ref 20): 3330 ng/mL
T1/2 ([3]; mice (♀ CD-1), 75 mg/kg ref 20): 84 min
Tmax ([3]; mice (♀ CD-1), 75 mg/kg ref 20): 30 min
Number of mice with detectable liver metastases (liver mets YES) [5]: All treated animals developed metastases
IC50 (p38α): 920 nM

Cc1cccc(-c2nn3c(c2-c2ccnc4ccc(O)cc24)CCC3)n1 [HYL001, 4-(2-(6-Methylpyridin-2-yl)-5,6-dihydro-4H-pyrrolo[1,2-b]pyrazol-3-yl)quinolin-6-ol]
Female mice with slight inflammatory infiltrates in liver ([1]; mouse, in vivo): 2/5
Mortality or signs of morbidity ([1]; mouse, in vivo): No mortality or signs of morbidity
Degeneration of heart valves (histopathology grade) [2]: minimal to mild
Heart abnormalities ([2]; low-dose group 1 (25 mg/kg BID)): no heart abnormalities were observed
no-observed-adverse-effect level ([2]; male rats): 25 mg/kg BID
Effects on body weight (gain), feed consumption, hematology, and clinical chemistry analytes ([2]; rats of both sexes, oral, either dose level): no HYL001-related effects
Retained hypertrophied cartilage physis in sternum and femur (grade) [2]: mild
solubility (Solubility; PBS/2-hydroxypropyl-β-cyclodextrin solution, aqueous with cosolvent or surfactant or cyclodextrin, solution of PBS/2-hydroxypropy-β-cyclodextrin (1 g/mL), read-out: Solubility): 230 µg/mL (≈ 672 µM)
solubility (Solubility; [6]): ~90 µg/mL (≈ 263 µM)
Solubility in water (Solubility): poorly soluble
Number of mice without detectable liver metastases (liver mets NO) [5]: 10 out of 11
IC50 (p38α): 548 nM
Animals showing a curved sternum at death or end point [4]: Some female rats
